Test results: patent US8471005B2 (Cephalon, Inc., priority 2008, dated 2013)
Like-named read-outs stand apart in the source and are kept apart here.

Columns and labels:
ALK = target: T1, ALK (Homo sapiens, UniProt Q9UM73); assay: ALK Kinase Assay (ELISA/TRF, PLC-γ substrate); type: biochemical; conditions: read-out: ALK Potency
T1 construct: host or cells: baculovirus expression system
Method in brief: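 PLC-γ substrate coated at 10 μg/mL in TBS; reaction started with 30 ng/ml ALK, run 15 min at 37° C. Phosphoproduct detected by TRF with Eu-N1-labeled PT66 anti-phosphotyrosine antibody. IC50 from sigmoidal variable-slope fit of percent inhibition versus log concentration.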

JAK2 = target: T2, JAK2 (Homo sapiens, UniProt O60674); assay: Recombinant Human JAK2 Kinase Assay (TRF); type: biochemical; conditions: read-out: JAK2 Potency
T2 construct: host or cells: baculovirus expression system
T2 sequence (O60674 whole entry): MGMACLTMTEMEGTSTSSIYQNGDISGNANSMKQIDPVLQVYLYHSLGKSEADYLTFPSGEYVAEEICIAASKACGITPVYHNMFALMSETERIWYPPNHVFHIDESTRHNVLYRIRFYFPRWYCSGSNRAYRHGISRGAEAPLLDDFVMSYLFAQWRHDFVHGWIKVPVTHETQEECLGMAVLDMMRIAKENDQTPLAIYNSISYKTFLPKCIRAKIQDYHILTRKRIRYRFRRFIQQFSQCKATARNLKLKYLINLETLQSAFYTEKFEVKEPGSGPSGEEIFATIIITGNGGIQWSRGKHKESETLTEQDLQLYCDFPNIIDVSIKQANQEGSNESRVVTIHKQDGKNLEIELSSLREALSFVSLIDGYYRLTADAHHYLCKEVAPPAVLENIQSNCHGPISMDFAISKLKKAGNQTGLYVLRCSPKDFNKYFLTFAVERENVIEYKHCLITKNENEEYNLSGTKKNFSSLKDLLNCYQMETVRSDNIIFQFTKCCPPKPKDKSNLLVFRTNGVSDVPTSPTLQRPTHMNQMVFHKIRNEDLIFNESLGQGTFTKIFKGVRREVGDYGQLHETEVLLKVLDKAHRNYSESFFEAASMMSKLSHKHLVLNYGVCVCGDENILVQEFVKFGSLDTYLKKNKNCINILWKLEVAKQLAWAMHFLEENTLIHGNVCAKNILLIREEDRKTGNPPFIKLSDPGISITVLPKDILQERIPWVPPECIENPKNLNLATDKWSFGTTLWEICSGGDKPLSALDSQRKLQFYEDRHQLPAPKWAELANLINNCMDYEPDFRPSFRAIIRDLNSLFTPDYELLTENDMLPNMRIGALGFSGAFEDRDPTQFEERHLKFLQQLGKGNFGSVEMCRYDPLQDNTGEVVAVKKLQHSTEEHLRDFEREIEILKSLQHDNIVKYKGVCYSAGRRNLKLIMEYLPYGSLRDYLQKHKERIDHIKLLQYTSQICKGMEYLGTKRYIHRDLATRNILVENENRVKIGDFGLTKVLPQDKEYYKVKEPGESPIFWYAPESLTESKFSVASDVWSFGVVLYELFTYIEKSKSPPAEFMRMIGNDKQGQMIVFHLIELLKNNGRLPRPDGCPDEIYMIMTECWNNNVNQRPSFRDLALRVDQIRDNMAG
Method in brief: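 TRF read-out: Eu-N1 PY100 anti-phosphotyrosine antibody detects product. Enzyme is baculovirus-expressed JAK2 at 15 ng/ml; substrate is a biotinyl 15-mer peptide bound to Neutravidin-coated wells. Buffer 20 mM HEPES pH 7.2, 0.2 μM ATP, 1 mM MnCl2, 0.1% BSA, 2.5% DMSO final; 20 min, RT.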

[1] = ALK kinase inhibition, 1 μM ATP
[2] = JAK2 kinase inhibition, 0.2 μM ATP

T1 sequence (Q9UM73 19-1620): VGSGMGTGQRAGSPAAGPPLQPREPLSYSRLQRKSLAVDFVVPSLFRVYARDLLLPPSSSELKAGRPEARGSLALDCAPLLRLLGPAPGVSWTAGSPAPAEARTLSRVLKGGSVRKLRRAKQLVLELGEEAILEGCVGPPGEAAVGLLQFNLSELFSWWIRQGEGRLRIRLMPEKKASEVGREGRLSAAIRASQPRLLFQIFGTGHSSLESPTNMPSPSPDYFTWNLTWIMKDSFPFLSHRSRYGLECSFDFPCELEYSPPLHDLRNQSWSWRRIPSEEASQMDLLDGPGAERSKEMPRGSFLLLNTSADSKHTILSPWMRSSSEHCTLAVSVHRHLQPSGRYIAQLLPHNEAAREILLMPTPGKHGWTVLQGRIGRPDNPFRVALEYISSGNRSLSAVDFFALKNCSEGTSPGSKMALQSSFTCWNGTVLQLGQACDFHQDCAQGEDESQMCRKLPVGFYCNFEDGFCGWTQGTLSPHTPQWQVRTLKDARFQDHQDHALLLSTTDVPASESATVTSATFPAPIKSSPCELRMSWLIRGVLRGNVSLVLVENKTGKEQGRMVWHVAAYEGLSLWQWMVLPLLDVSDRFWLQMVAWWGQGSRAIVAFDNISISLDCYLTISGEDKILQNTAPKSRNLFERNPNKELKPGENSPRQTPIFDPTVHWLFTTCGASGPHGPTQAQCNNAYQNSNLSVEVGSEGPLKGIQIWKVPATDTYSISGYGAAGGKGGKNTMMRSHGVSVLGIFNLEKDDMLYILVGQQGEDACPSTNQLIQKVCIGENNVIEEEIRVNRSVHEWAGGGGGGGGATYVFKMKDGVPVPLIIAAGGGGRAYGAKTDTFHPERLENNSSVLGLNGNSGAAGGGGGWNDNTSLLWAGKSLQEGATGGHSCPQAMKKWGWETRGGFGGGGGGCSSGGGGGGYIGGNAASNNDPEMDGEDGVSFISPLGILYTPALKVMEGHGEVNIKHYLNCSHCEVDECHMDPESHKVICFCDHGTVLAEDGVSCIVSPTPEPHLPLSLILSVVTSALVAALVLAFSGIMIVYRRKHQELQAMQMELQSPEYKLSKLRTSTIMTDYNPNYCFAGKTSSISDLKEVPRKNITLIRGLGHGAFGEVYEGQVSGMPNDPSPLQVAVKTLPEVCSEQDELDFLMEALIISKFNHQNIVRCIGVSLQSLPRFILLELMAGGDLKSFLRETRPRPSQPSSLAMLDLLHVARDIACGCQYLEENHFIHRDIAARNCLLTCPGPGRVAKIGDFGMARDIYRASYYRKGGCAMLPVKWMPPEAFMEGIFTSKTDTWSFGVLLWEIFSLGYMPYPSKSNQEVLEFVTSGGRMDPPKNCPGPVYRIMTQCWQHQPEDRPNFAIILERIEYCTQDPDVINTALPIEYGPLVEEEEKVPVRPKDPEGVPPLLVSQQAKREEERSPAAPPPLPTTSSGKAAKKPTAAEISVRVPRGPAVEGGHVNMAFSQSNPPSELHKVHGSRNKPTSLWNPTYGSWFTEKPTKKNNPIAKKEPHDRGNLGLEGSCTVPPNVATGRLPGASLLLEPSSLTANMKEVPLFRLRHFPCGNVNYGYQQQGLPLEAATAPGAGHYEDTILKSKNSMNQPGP

Q: For COc1ccccc1-c1ccc2cnc(Nc3ccc(N4CCOCC4)nc3)nn12 [Example 47, [7-(2-Methoxy-phenyl)-pyrrolo[2,1-f][1,2,4]triazin-2-yl]-(6-morpholin-4-yl-pyridin-3-yl)-amine], which IC50 (ALK; ALK Kinase Inhibition) is on record?
A: 100 to 1000 nM

Q: What about the IC50 (JAK2; JAK2 Kinase Inhibition) of the same compound?
A: < 100 nM

Q: Which results are given for COc1cc([C@H]2CC[C@H](N3CCOCC3)CC2)ccc1Nc1ncc2ccc(-c3ccccc3OC)n2n1 [Example 1247, N-{2-methoxy-4-[trans-4-(morpholin-4-yl)cyclohexyl]phenyl}-7-(2-methoxyphenyl)pyrrolo[2,1-f][1,2,4]triazin-2-amine]?
A: IC50 (ALK; [1]): < 100 nM; IC50 (JAK2; [2]): 100 to 1000 nM

Q: With CC(=O)Nc1cccc(Nc2ncc3ccc(-c4cccc(CN(C)S(C)(=O)=O)c4)n3n2)c1 [Example 1053, N-[3-(7-{3-[(Methanesulfonyl-methyl-amino)-methyl]-phenyl}-pyrrolo[2,1-f][1,2,4]triazin-2-ylamino)-phenyl]-acetamide] as the compound, how does the IC50 (ALK; [1]) read?
A: 1000 to 10000 nM

Q: And the IC50 (JAK2; [2])?
A: < 100 nM

Q: How did the IC50 (ALK; ALK Kinase Inhibition) turn out when COc1cc(N2CCN(C)CC2)ccc1Nc1ncc2ccc(-c3cccnc3OC)n2n1 [Example 34, [2-Methoxy-4-(4-methyl-piperazin-1-yl)-phenyl]-[7-(2-methoxy-pyridin-3-yl)-pyrrolo[2,1-f][1,2,4]triazin-2-yl]-amine] was run?
A: < 100 nM

Q: What about the IC50 (JAK2; JAK2 Kinase Inhibition) of the same compound?
A: < 100 nM

Q: How did the IC50 (ALK; [1]) turn out when CN1CCCC1COc1cc(Nc2ncc3ccc(-c4ccccc4N(C)S(C)(=O)=O)n3n2)ccc1Cl (stereo not shown) [Example 1010, N-(2-{2-[4-Chloro-3-(1-methyl-pyrrolidin-2-ylmethoxy)-phenylamino]-pyrrolo[2,1-f][1,2,4]triazin-7-yl}-phenyl)-N-methyl-methanesulfonamide] was run?
A: 100 to 1000 nM

Q: What about the IC50 (JAK2; [2]) of the same compound?
A: < 100 nM

Q: Which IC50 (ALK; [1]) does the source give for COc1cc2c(cc1Nc1ncc3ccc(-c4ccccc4OC)n3n1)CN(C)C2 [Example 816, (6-Methoxy-2-methyl-2,3-dihydro-1H-isoindol-5-yl)-[7-(2-methoxy-phenyl)-pyrrolo[2,1-f][1,2,4]triazin-2-yl]-amine] here?
A: < 100 nM

Q: And the IC50 (JAK2; [2])?
A: < 100 nM

Q: Which results are given for Clc1cccc(-c2ccc3cnc(Nc4ccc(N5CCCC(N6CCOCC6)C5)cc4)nn23)c1 (stereo not shown) [Example 345, [7-(3-Chloro-phenyl)-pyrrolo[2,1-f][1,2,4]triazin-2-yl]-[4-(3-morpholin-4-yl-piperidin-1-yl)-phenyl]-amine]?
A: IC50 (ALK; ALK Kinase Inhibition): 100 to 1000 nM; IC50 (JAK2; JAK2 Kinase Inhibition): < 100 nM

Q: Which results are given for CC(=O)Nc1cc(Nc2ncc3ccc(-c4cccnc4)n3n2)ccc1C(C)C [Example 304, N-[2-Isopropyl-5-(7-pyridin-3-yl-pyrrolo[2,1-f][1,2,4]triazin-2-ylamino)-phenyl]-acetamide]?
A: IC50 (ALK; ALK Kinase Inhibition): 1000 to 10000 nM; IC50 (JAK2; JAK2 Kinase Inhibition): < 100 nM

Q: With CC1(C)CCC(=O)Nc2cc(Nc3ncc4ccc(-c5cccc(NS(C)(=O)=O)c5)n4n3)ccc21 [Example 381, N-{3-[2-(5,5-Dimethyl-2-oxo-2,3,4,5-tetrahydro-1H-1-benzazepin-8-ylamino)-pyrrolo[2,1-f][1,2,4]triazin-7-yl]-phenyl}-methanesulfonamide] as the compound, how does the IC50 (ALK; ALK Kinase Inhibition) read?
A: 100 to 1000 nM

Q: What about the IC50 (JAK2; JAK2 Kinase Inhibition) of the same compound?
A: < 100 nM

Q: Which IC50 (ALK; ALK Kinase Inhibition) does the source give for COc1ccccc1-c1cc(Br)n2nc(Nc3ccc(N4CCN(C)CC4)cc3)ncc12 [Example 102, [7-Bromo-5-(2-methoxy-phenyl)-pyrrolo[2,1-f][1,2,4]triazin-2-yl]-[4-(4-methyl-piperazin-1-yl)-phenyl]-amine] here?
A: > 10000 nM

Q: What about the IC50 (JAK2; JAK2 Kinase Inhibition) of the same compound?
A: 1000 to 10000 nM

Q: Which results are given for CN1CCN(C(=O)c2cccc(Nc3ncc4ccc(-c5cccnc5)n4n3)c2)CC1 [Example 341, (4-Methyl-piperazin-1-yl)-[3-(7-pyridin-3-yl-pyrrolo[2,1-f][1,2,4]triazin-2-ylamino)-phenyl]-methanone]?
A: IC50 (ALK; ALK Kinase Inhibition): 1000 to 10000 nM; IC50 (JAK2; JAK2 Kinase Inhibition): < 100 nM

Q: Which results are given for OC(c1ccccc1)c1ccc2cnc(Nc3ccc(N4CCOCC4)cc3)nn12 (stereo not shown) [Example 383, [2-(4-Morpholin-4-yl-phenylamino)-pyrrolo[2,1-f][1,2,4]triazin-7-yl]-phenyl-methanol]?
A: IC50 (ALK; ALK Kinase Inhibition): 1000 to 10000 nM; IC50 (JAK2; JAK2 Kinase Inhibition): < 100 nM

Q: COc1ccc(Cl)cc1-c1ccc2cnc(Nc3ccc(N4CCC(N5CCN(C)CC5)CC4)cc3)nn12 [Example 311, [7-(5-Chloro-2-methoxy-phenyl)-pyrrolo[2,1-f][1,2,4]triazin-2-yl]-{4-[4-(4-methyl-piperazin-1-yl)-piperidin-1-yl]-phenyl}-amine] was tested. Which IC50 (ALK; ALK Kinase Inhibition) did it give?
A: < 100 nM

Q: And the IC50 (JAK2; JAK2 Kinase Inhibition)?
A: < 100 nM

Q: For COCc1ccc(-c2ccc3cnc(Nc4ccc(N5CCN(C)CC5)cc4)nn23)cc1 [Example 1499, [7-(4-Methoxymethyl-phenyl)-pyrrolo[2,1-f][1,2,4]triazin-2-yl]-[4-(4-methyl-piperazin-1-yl)-phenyl]-amine], which IC50 (ALK; ALK Kinase Inhibition) is on record?
A: 100 to 1000 nM

Q: And the IC50 (JAK2; JAK2 Kinase Inhibition)?
A: < 100 nM

Q: With CC(C)(C)NS(=O)(=O)c1cccc(-c2ccc3cnc(Nc4ccc5nn(CCN6CCOCC6)cc5c4)nn23)c1 [Example 1345, N-tert-Butyl-3-{2-[2-(2-morpholin-4-yl-ethyl)-2H-indazol-5-ylamino]-pyrrolo[2,1-f][1,2,4]triazin-7-yl}-benzenesulfonamide] as the compound, how does the IC50 (ALK; [1]) read?
A: 100 to 1000 nM

Q: What about the IC50 (JAK2; [2]) of the same compound?
A: < 100 nM

Q: With CN1CCN(c2ccc(Nc3ncc4ccc(-c5cnn(C)c5)n4n3)cc2F)CC1 [Example 1215, [3-Fluoro-4-(4-methyl-piperazin-1-yl)-phenyl]-[7-(1-methyl-1H-pyrazol-4-yl)-pyrrolo[2,1-f][1,2,4]triazin-2-yl]-amine] as the compound, how does the IC50 (ALK; [1]) read?
A: 100 to 1000 nM

Q: And the IC50 (JAK2; [2])?
A: < 100 nM

Q: Which IC50 (ALK; ALK Kinase Inhibition) does the source give for COc1ccc(OC)c(-c2ccc3cnc(Nc4ccc(N5CCC(N6CCOCC6)CC5)cc4OC)nn23)c1 [Example 1476, [7-(2,5-Dimethoxy-phenyl)-pyrrolo[2,1-f][1,2,4]triazin-2-yl]-[2-methoxy-4-(4-morpholin-4-yl-piperidin-1-yl)-phenyl]-amine] here?
A: < 100 nM

Q: And the IC50 (JAK2; JAK2 Kinase Inhibition)?
A: 100 to 1000 nM

Q: Which IC50 (ALK; [1]) does the source give for CS(=O)(=O)c1ccc(-c2ccc3cnc(Nc4ccc5c(c4)CCC(N4CCOCC4)CC5)nn23)cc1 (stereo not shown) [Example 612, [7-(4-Methanesulfonyl-phenyl)-pyrrolo[2,1-f][1,2,4]triazin-2-yl]-(7-morpholin-4-yl-6,7,8,9-tetrahydro-5H-benzocyclohepten-2-yl)-amine] here?
A: 100 to 1000 nM

Q: What about the IC50 (JAK2; [2]) of the same compound?
A: < 100 nM

Q: COc1ccccc1-c1ccc2cnc(Nc3ccc4nn(CCN5CCOCC5)cc4c3)nn12 [Example 1351, [7-(2-Methoxy-phenyl)-pyrrolo[2,1-f][1,2,4]triazin-2-yl]-[2-(2-morpholin-4-yl-ethyl)-2H-indazol-5-yl]-amine] was tested. Which IC50 (ALK; [1]) did it give?
A: 100 to 1000 nM

Q: And the IC50 (JAK2; [2])?
A: < 100 nM

Q: For CS(=O)(=O)c1ccc(-c2ccc3cnc(-n4cnc5cnccc54)nn23)cc1 [Example 330, 1-[7-(4-Methanesulfonyl-phenyl)-pyrrolo[2,1-f][1,2,4]triazin-2-yl]-1H-imidazo[4,5-c]pyridine], which IC50 (ALK; ALK Kinase Inhibition) is on record?
A: 1000 to 10000 nM

Q: And the IC50 (JAK2; JAK2 Kinase Inhibition)?
A: 1000 to 10000 nM

Q: Which IC50 (ALK; [1]) does the source give for COc1cc2c(cc1Nc1ncc3ccc(-c4cccc5c4OCC5)n3n1)CCNCC2 [Example 709, [7-(2,3-Dihydro-benzofuran-7-yl)-pyrrolo[2,1-f][1,2,4]triazin-2-yl]-(8-methoxy-2,3,4,5-tetrahydro-1H-3-benzazepin-7-yl)-amine] here?
A: < 100 nM

Q: What about the IC50 (JAK2; [2]) of the same compound?
A: < 100 nM

Q: For “(7-Pyridin-3-yl-pyrrolo[2,1-f][1,2,4]triazin-2-yl)-[4-(2-pyrrolidin-1-yl-ethoxy)-phenyl]-amine [Example 126]”, which IC50 (ALK; ALK Kinase Inhibition) is on record?
A: 100 to 1000 nM

Q: What about the IC50 (JAK2; JAK2 Kinase Inhibition) of the same compound?
A: < 100 nM

Q: With c1cc2c(c(-c3ccc4cnc(Nc5cnc6c(N7CCNCC7)cccc6c5)nn34)c1)OCC2 [Example 710, [7-(2,3-Dihydro-benzofuran-7-yl)-pyrrolo[2,1-f][1,2,4]triazin-2-yl]-(8-piperazin-1-yl-quinolin-3-yl)-amine] as the compound, how does the IC50 (ALK; [1]) read?
A: > 10000 nM

Q: What about the IC50 (JAK2; [2]) of the same compound?
A: 1000 to 10000 nM
